How the values were obtained:
cTnI-G203S mice = assay: Echocardiography of pre-cardiomyopathic cTnI-G203S mice (Example 15); type: in vivo, mouse; details: 5 μM, 3×/wk/5 wk; versus AID(S)-TAT; FIG. 15
Excerpt: Twenty to thirty week-old male mice expressing the human cTnI gene encoding the human disease-causing cTnI-G203S were generated and used for the in vivo studies. By way of background, the mice develop hallmark features of HCM between 20 and 25 weeks (Viola H, Johnstone V, Cserne Szappanos H, Richman T, Tsoutsman T, Filipovska A, et al. The L-type Ca(2+) channel facilitates abnormal metabolic activity in the cTnI-G2035 mouse model of hypertrophic cardiomyopathy. J Physiol. 2016; 594(14):4051-70; Viola H M, Shah A A, Johnstone V P A, Cserne Szappanos H, Hodson M P, Hool L C. Characterization and validation of a preventative therapy for hypertrophic cardiomyopathy in a murine model of the disease. Proc Nati Aced Sci U S A. 2020; 117(37):23113-24; Tsoutsman T, Chung J, Doolan A, Nguyen L, Williams IA, Tu E, et al. Molecular insights from a novel cardiac troponin I mouse model of familial hypertrophic cardiomyopathy. J Mol Cell Cardiol. 2006; 41(4):623-32). Age-matched male mice expressing the normal human troponin I gene were used as controls and indicated as wild-type (wt). For in vivo studies, 20-week old cTnI-G203S mice were treated with 10 μM AID(S)-TAT (2 mg/kg) or 5 μM AID-TAT mutant peptides via intraperitoneal injection, 3 times per week for a total duration of 5 weeks. The peptide was dissolved in phosphate buffered saline solution (PBS), and the total amount of the 10 μM AID-TAT mutant peptides administered over 5 weeks was 0.9 mg. The total amount of the 5 μM AID-TAT mutant peptides administered over 5 weeks was 0.45 mg Male mice were utilized to eliminate potential differences in responses due to gender. The number of mice used is indicated by N.
Echocardiographic studies to measure left ventricular function were performed on mice under light methoxyflurane anaesthesia with the use of an i13L probe on a Vivid™ 7 IQ ultrasound system (GE Healthcare, Little Chalfont, UK) as previously described (Viola H, Johnstone V, Cserne Szappanos H, Richman T, Tsoutsman T, Filipovska A, et al. The L-type Ca(2+) channel facilitates abnormal metabolic activity in the cTnI-G2035 mouse model of hypertrophic cardiomyopathy. J Physiol. 2016; 594(14):4051-70; Viola H M, Shah A A, Johnstone V P A, Cserne Szappanos H, Hodson M P, Hool L C. Characterization and validation of a preventative therapy for hypertrophic cardiomyopathy in a murine model of the disease. Proc Natl Acad Sci U S A. 2020; 117(37):23113-24; Viola H M, Johnstone V P A, Cserne Szappanos H, Richman T R, Tsoutsman T, Filipovska A, et al. The Role of the L-Type Ca(2+) Channel in Altered Metabolic Activity in a Murine Model of Hypertrophic Cardiomyopathy. JACC Basic Transl Sci. 2016; 1(1-2):61-72). Each N represents the average of quantitative measurements from wt or cTnI-G203S mice for each treatment group.

[1] = test system: myocytes isolated from cTnI-G203S mutant mouse hearts; assay: Mitochondrial flavoprotein oxidation after BayK(−), myocytes from HCM hearts (Example 6); type: cell-based; details: FIG. 5
Experimental: FIG. 5 presents the effect of mutant peptides on flavoprotein oxidation, a measure of metabolic activity and oxygen consumption in myocytes isolated from cTnI-G203S mutant mouse hearts that are hypertrophic.
All in vitro studies were performed in freshly isolated myocytes at 37° C. […] Following a 20 min incubation with 0.5-1 μM AID(S)-TAT, AID-TAT, peptide 6 or peptide 7, fluorescent signal of individual myocytes was quantified using Metamorph 6.3 to measure signal intensity of manually traced cell regions. An equivalent region not containing cells was used for background and was subtracted.
Autofluorescence was used to measure flavoprotein oxidation in cardiac myocytes based on previously described methods (480 nm ex, 535 nm em). Fluorescent images were taken at 1 min intervals with 1 s exposure before and after exposure to L-type Ca2+ channel agonist BayK(−). Fluorescence was reported as a percentage from the baseline pre-treatment average.

[2] = biological target: T1, L-type Ca^2+ channel β2 subunit (Homo sapiens, UniProt Q08289); assay: Binding competition assay of variant peptides for the β2 subunit (AID-coated beads, heart lysate, SDS-PAGE); details: competition with bead-bound AID peptide, whole heart lysate, immunoblot densitometry; FIG. 2
T1 construct: from tissue; host or cells: whole heart (cardiac) lysate
T1 sequence (Q08289 whole entry): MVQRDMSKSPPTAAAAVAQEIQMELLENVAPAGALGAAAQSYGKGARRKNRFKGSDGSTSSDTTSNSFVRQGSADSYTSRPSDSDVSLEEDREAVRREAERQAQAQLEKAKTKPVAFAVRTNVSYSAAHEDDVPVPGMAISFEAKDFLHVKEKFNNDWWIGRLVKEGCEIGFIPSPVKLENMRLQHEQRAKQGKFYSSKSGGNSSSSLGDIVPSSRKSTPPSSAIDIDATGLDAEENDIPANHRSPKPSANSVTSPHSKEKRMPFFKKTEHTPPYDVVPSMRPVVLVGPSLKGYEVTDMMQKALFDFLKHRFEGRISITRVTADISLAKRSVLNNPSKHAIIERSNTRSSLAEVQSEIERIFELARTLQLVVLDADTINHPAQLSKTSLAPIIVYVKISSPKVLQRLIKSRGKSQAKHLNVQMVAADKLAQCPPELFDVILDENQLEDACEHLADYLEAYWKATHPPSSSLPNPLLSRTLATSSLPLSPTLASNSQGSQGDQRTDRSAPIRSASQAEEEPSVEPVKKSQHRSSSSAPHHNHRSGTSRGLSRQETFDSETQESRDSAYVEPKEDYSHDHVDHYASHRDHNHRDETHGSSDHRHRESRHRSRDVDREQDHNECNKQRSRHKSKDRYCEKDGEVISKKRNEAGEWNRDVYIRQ
Experimental: The affinity of each of the variant peptides to the β2 subunit was investigated through binding competition assays.
PureProteome™ NHS FlexiBind Magnetic Beads (Cat. #LSKMAGN04, Merck) were used following manufacturer recommendations. Aminohexanoic acid linked AID peptide was bound to the NHS flexibind magnetic beads at a concentration of more than 2 mg/mL to obtain saturation of the beads with peptide. Beads were first primed with an equilibration buffer (1 mM HCL) to prepare them for binding. The Ahx-AID peptide was dissolved in wash/coupling buffer (PBS, pH 7.4) and added to the beads. The beads-AID peptide mixture was left to mix uniformly on a multiplate shaker at a speed of 300 rpm at room temperature for 2 hours. To reduce non-specific binding the beads were incubated in Quench Buffer (100 mM Tris-HCl, 150 mM NaCl, pH 8.0) at room temperature for 1 hour.
The AID-peptide bound beads were split into 5 aliquots for the 5 samples prepared in Table 5. The whole heart lysate added to each of the peptide-bound beads to allow competitive binding for 2 hours at room temperature.
Upon completion, the conjugate was washed in coupling buffer, to remove unbound fraction. SDS sample buffer was added to the beads, with the tubes then heated for 5 minutes at 95° C. The eluted sample stored at −20° C. to be run through sodium dodecyl sulfate-polyacrymalide gel electrophoresis (SDS-PAGE) to determine the binding affinity of each of the variants.
The use of streptavidin dynabeads and biotinylated peptide was developed to improve the binding affinity assays. The peptide was initially biotinylated using EZ-link amine-PEG11-biotin (Spacer arm: 53.2 Å, Thermofisher Scientific, Cat. #26136) which was dissolved in 0.1M MES buffer ((2-N-morpholino)-ethanesulfonic acid) at a concentration of 1 mM. Just prior to the reaction, 0.1M EDC (N-(3-Dimethylaminopropyl)-N′-ethylcarbodiimide hydrochloride) was dissolved in MES buffer. In order to achieve complete biotinylation of the AID peptide, a 50× molar excess of biotin to peptide was required, with the total volumes of each component required shown in Table 6.
Each 78 μL aliquot of the biotinylated peptide shown in […] was enough for 6 reactions, covering the range of concentrations in which the heart lysate was again prepared with varying concentrations of the variant AID peptides according to Table 7.
The 78 μL aliquot of biotinylated AID-peptide was mixed with streptavidin dynabeads (1 mg Dynabeads per every 200 pmol biotinylated peptide) for half an hour at room temperature. The heart lysate ([…]) was incubated with the variant peptides at room temperature for 2 hours. After removing all unbound peptide from the beads, they were mixed with the pre-bound heart lysate for 2 hours at room temperature. The unbound fraction was removed. […]

cTnI.2 wt myocytes = assay: Flavoprotein oxidation response to BayK(−), wt myocytes (Example 10); type: cell-based, mouse; details: 0.5 μM peptide 20 min, 10 μM BayK(−), FIG. 10B
Experimental: In this experiment wt myocytes were pre-exposed to 0.1, 0.5 or 1 μM for 20 min and assessed changes in flavoprotein oxidation and ψm.
Measurement of mitochondrial flavoprotein oxidation: Flavoprotein autofluorescence was used to measure flavoprotein oxidation based on previously described methods (Yaniv Y, Juhaszova M, Lyashkov A E, Spurgeon H A, Sollott S J, Lakatta E G. Ca2+-regulated-cAMP/PKA signaling in cardiac pacemaker cells links ATP supply to demand. J Mol Cell Cardiol. 2011; 51(5):740-8). […] Fluorescent images were acquired at 1 min intervals with 200 ms exposure. Metamorph 6.3 (Version 7.10.3) was used to quantify the signal by manually tracing myocytes. An equivalent region not containing cells was used as background and was subtracted. Fluorescence values recorded over 5 min before and 5 min after addition of drugs were averaged and alterations in fluorescent ratios reported as the percentage increase from the basal average. FCCP (50 μM) and NaCN (40 mM) was added at the end of each experiment to achieve a respective maximal and minimal fluorescence value indicative of maximal and minimal flavoprotein oxidation.
The ICA-L agonist BayK(−) was used to activate the channel and assess mitochondrial function. […] FIG. 10 presents the mean+/−SEM of flavoprotein fluorescence from cTnI.2 wt and cTnI-G2035 mutant myocytes before and after exposure to 10 μM BayK(−) in the presence of 1 μM AID(S)-TAT, and increasing concentrations of variant peptides as indicated. N=no. of animals, n=no. of cardiomyocytes. P values shown compared with AID(S)-TAT as determined by the Kruskal-Wallis test.

Cavβ2 subunit = biological target: T2, Cavβ2 subunit (Homo sapiens, UniProt Q08289); assay: Competitive binding affinity assay, biotinylated AID affinity beads vs Cavβ2 subunit (Example 9); details: dose-response 0, 10 nM to 100 μM peptide; FIG. 9
T2 construct: incubated with 100 μg of Cavβ2 subunit from cardiac homogenate and cytoplasmic protein preparation; from tissue; host or cells: cardiac homogenate and cytoplasmic protein preparation
T2 sequence (Q08289 whole entry): as above
Experimental: In this experiment, a binding affinity assay was utilized to examine the binding efficacy of AID peptide variants presented in Table 8, compared to the original AID peptide.
Biotinylation of original AID (no TAT): For each reaction (a dose-response curve consisted of 6 reactions), 0.02 nM […] was incubated in biotinylation solution (0.1M MES buffer containing 1 nM amine-PEG11-biotin and 0.2 nM EDC) for 2 hrs at room temperature with agitation (400 rpm). Affinity beads (Dynabeads M-280 Streptavidin, ThermoFisher Scientific) were then incubated with biotinylated AID peptide for 30 min at room temperature with agitation (400 rpm). Afterwards, biotinylated AID-coated affinity beads were washed, initially in 0.1% BSA in PBS and then three times in PBS for 3 min.
Biochem J. 2000; 348 Pt 3:657-65; Haase H, Striessnig J, Holtzhauer M, Vetter R, Glossmann H. A rapid procedure for the purification of cardiac 1,4-dihydropyridine receptors from porcine heart. Eur J Pharmacol. 1991; 207(1):51-9).
Competitive binding of AID-affinity beads and Cavβ2 subunit: Cavβ2-AID mutant peptide dilutions were then incubated with biotinylated AID-coated affinity beads for 2 hrs at room temperature with gentle agitation (400 rpm). Samples were placed on a magnetic stand to allow affinity beads to migrate to the magnet. Supernatant was removed and treated with 1× sample buffer (62.5 mM Tris-HCl, pH 6.8, 2% SDS, 10% glycerol, 100 mM DTT, 0.002% Bromophenol Blue) for 5 min at 95° C. Resulting protein was analysed by immunoblot.

Substance | IVSd, intraventricular septum in diastole (cTnI-G203S mice) | IVSs, intraventricular septum in systole (cTnI-G203S mice) | flavoprotein oxidation in comparison with AID-TAT peptide [1] | binding affinity (K0.5) for the target β2 subunit versus the original AID peptide [2] | BayK(−) induced increase in flavoprotein oxidation (cTnI.2 wt myocytes) | K0.5 values compared to AID peptide (Cavβ2 subunit)
AIDP16-TAT: QQREEDLKGYLDWITQAE with TAT sequence | restored IVSd and IVSs only | restored IVSd and IVSs only | – | – | – | –
QQEEEDEKGYLDWITQAE (Variant P15) | – | – | statistically significant reduction in flavoprotein oxidation in comparison with AID-TAT peptide | greater binding affinity (lower K0.5) | effective | decreased K0.5 values
QQEEEDLKGYLDWITQAE (Varian P14) [Variant P14] | – | – | statistically significant reduction in flavoprotein oxidation in comparison with AID-TAT peptide | greater binding affinity (lower K0.5) | effective | decreased K0.5 values
QQREEDLKGYLDWITQAE (Variant P16) | – | – | – | greater binding affinity (lower K0.5) | – | decreased K0.5 values

Source: patent publication US20240158447A1, “PEPTIDES FOR USE IN THE TREATMENT OR PREVENTION OF MYOCARDIAL DAMAGE” (THE UNIVERSITY OF WESTERN AUSTRALIA, priority 2020, published 2024)
